Tested on: H1650 lung cancer cells
Test: Cell viability assay (MTT, IC50 determination)
Format: cell-based
Conditions: MTT
Protocol: 89(22): p. […] H1650 lung cancer cells were plated at 150,000 cells per well in a 12 well plate. Twenty-four hours after plating, cells were treated as described with increasing concentrations of drug and control. Forty-eight hours after drug treatment, cells were treated with 100 μL of 3-(4,5-Dimethylthiazol-2-yl)-2,5-diphenyltetrazolium bromide (MTT) and incubated for 2 hours at 37 C. The MTT solution was subsequently replaced with 300 μL of n-propyl alcohol and re-aliquoted to a 96 well plates. Spectrophotometric analysis of each solution was performed using a 96 well plate reader at 600 nm in triplicate.

[1] = Homo sapiens, NCI-H1650, 48 hours after drug treatment

Compound: Cc1ccc(S(=O)(=O)NCCCN2c3ccccc3Sc3ccc(Cl)cc32)cc1 [Example 3, N-(3-(2-chloro-10H-phenothiazin-10-yl)propyl)-4-methylbenzenesulfonamide]
- IC50 [1]: 20 µM

Compound: COC(=O)NCCCN1c2ccccc2Sc2ccc(Cl)cc21 [Example 4, Methyl (3-(2-chloro-10H-phenothiazin-10-yl)propyl)carbamate]
- IC50 [1]: 10 µM

Compound: Cc1ccc(S(=O)(=O)NCCCN2c3ccccc3CCc3ccc(Cl)cc32)cc1 [Example 8, N-(3-(3-chloro-10,11-dihydro-5H-dibenzo[b,f]azepin-5-yl)propyl)-4-methylbenzenesulfonamide]
- IC50 [1]: 20 µM

Compound: COC(=O)NCCCN1c2ccccc2CCc2ccc(Cl)cc21 [Example 9, Methyl (3-(3-chloro-10,11-dihydro-5H-dibenzo[b,f]azepin-5-yl)propyl)carbamate]
- IC50 (48 hours after drug treatment): 30 µM

Compound: CN(C)C(=O)NCCCN1c2ccccc2CCc2ccc(Cl)cc21 [Example 10, 3-(3-(3-chloro-10,11-dihydro-5H-dibenzo[b,f]azepin-5-yl)propyl)-1,1-dimethylurea]
- IC50 [1]: 20 µM

Compound: COc1ccc(S(=O)(=O)NCCCN2c3ccccc3Sc3ccc(Cl)cc32)cc1 [Example 11, N-(3-(2-chloro-10H-phenothiazin-10-yl)propyl)-4-methoxybenzenesulfonamide]
- IC50 (Cell Viability Data) (48 hours after drug treatment): INACTIVE

Compound: O=S(=O)(NCCCN1c2ccccc2Sc2ccc(Cl)cc21)c1cc(F)cc(F)c1 [Example 13]
- IC50 [1]: 18 µM

Compound: N#Cc1ccc(S(=O)(=O)NCCCN2c3ccccc3Sc3ccc(Cl)cc32)cc1 [Example 14, N-(3-(2-chloro-10H-phenothiazin-10-yl)propyl)-4-cyanobenzenesulfonamide]
- IC50 [1]: 40 µM

Compound: O=S(=O)(NCCCN1c2ccccc2Sc2ccc(Cl)cc21)c1ccc(Cl)cc1 [Example 15, 4-Chloro-N-(3-(2-chloro-10H-phenothiazin-10-yl)propyl)benzenesulfonamide]
- IC50 [1]: 20 µM

Compound: CN(C)C(=O)NCCCN1c2ccccc2Sc2ccc(Cl)cc21 [Example 17, 3-(3-(2-Chloro-10H-phenothiazin-10-yl)propyl)-1,1-dimethylurea]
- IC50 [1]: > 50 µM

Compound: NCCCN1c2ccccc2CCc2ccccc21 [Example 19, 3-(10,11-dihydro-5H-dibenzo[b,f]azepin-5-yl)propan-1-aminium chloride]
- IC50 [1]: 24.4 µM

Compound: O=S(=O)(NCCCN1c2ccccc2CCc2ccc(Cl)cc21)c1ccc(F)cc1 [Example 20, N-(3-(3-chloro-10,11-dihydro-5H-dibenzo[b,f]azepin-5-yl)propyl)-4-fluorobenzenesulfonamide]
- IC50 [1]: > 40 µM

Compound: O=S(=O)(NCCCN1c2ccccc2CCc2ccc(Cl)cc21)c1ccc(C(F)(F)F)cc1 [Example 21, N-(3-(3-chloro-10,11-dihydro-5H-dibenzo[b,f]azepin-5-yl)propyl)-4-(trifluoromethyl)benzenesulfonamide]
- IC50 [1]: 15.3 µM

Compound: N#Cc1ccc(S(=O)(=O)NCCCN2c3ccccc3CCc3ccc(Cl)cc32)cc1 [Example 22, N-(3-(3-chloro-10,11-dihydro-5H-dibenzo[b,f]azepin-5-yl)propyl)-4-cyanobenzenesulfonamide]
- IC50 [1]: 11.1 µM

Compound: O=S(=O)(NCCCN1c2ccccc2CCc2ccc(Cl)cc21)c1ccc(Cl)cc1 [Example 23, 4-Chloro-N-(3-(3-chloro-10,11-dihydro-5H-dibenzo[b,f]azepin-5-yl)propyl)benzenesulfonamide]
- IC50 [1]: ~25 µM

Compound: CS(=O)(=O)c1ccc(S(=O)(=O)NCCCN2c3ccccc3CCc3ccc(Cl)cc32)cc1 [Example 24, N-(3-(3-chloro-10,11-dihydro-5H-dibenzo[b,f]azepin-5-yl)propyl)-4-(methylsulfonyl)benzenesulfonamide]
- IC50 [1]: 15.1 µM

Compound: COc1ccc(S(=O)(=O)NCCCN2c3ccccc3CCc3ccc(Cl)cc32)cc1 [Example 25, N-(3-(3-chloro-10,11-dihydro-5H-dibenzo[b,f]azepin-5-yl)propyl)-4-methoxybenzenesulfonamide]
- IC50 [1]: < 40 µM
